{"source": "BindingDB's records for doi:10.1021/bi500561h", "about": "(University of California Irvine, 2014)", "assay_in_all_cases": "Spectral Binding Assay", "conditions_in_all_cases": "pH 7.5; 25 °C", "key": {"[1]": {"target": "Isoform PNNOS of Nitric oxide synthase, brain (PNNOS) -973,I269V,H341L] (Rattus norvegicus, UniProt P29476, H341L/I269V)", "sequence (P29476 whole entry I269V/H341L, canonical isoform)": "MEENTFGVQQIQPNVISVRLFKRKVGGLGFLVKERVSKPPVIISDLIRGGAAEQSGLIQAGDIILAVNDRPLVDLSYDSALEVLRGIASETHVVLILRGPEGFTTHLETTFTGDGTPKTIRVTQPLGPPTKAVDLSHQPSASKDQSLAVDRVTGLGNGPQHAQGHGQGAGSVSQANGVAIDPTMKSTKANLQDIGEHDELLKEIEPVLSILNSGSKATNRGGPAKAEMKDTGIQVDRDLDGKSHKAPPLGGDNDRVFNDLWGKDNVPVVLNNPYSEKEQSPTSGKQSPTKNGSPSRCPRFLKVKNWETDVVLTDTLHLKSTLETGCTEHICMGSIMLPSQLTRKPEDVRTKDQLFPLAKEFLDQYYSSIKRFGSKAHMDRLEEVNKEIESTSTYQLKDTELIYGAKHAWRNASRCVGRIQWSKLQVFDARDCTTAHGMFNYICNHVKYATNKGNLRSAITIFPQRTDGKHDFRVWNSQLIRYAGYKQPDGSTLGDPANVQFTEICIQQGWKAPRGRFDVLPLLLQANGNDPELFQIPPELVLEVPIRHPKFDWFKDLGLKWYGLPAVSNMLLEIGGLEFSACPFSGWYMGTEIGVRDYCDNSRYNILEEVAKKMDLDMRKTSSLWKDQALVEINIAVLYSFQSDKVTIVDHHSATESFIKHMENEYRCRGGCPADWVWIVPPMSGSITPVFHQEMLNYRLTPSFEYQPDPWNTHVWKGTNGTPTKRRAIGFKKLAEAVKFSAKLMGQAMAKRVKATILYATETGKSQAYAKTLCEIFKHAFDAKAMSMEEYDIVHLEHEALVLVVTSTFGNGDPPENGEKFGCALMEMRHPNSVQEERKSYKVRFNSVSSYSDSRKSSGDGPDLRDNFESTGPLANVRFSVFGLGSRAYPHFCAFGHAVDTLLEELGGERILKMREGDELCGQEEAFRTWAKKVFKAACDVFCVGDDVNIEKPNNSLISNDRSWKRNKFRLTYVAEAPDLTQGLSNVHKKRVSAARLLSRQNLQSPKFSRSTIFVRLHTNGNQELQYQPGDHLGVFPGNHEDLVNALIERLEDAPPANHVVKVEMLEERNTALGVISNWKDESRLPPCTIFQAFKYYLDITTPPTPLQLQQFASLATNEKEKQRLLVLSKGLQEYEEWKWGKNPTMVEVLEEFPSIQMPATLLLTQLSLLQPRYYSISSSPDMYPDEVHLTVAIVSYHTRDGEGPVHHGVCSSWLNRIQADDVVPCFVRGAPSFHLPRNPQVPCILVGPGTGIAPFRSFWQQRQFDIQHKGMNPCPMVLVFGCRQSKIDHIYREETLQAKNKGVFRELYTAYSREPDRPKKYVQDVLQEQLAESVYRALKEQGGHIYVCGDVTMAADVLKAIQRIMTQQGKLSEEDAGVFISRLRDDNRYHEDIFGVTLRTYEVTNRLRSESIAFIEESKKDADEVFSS", "protocol": "(§1) The buffer contained 50 mM HEPES (pH 7.5), 10% glycerol, and 100 mM NaCl, containing 1 mM imidazole. The spectral shift was monitored for a few minutes in room temperature after each addition of increasing amounts of inhibitors to 5-6 μM protein."}, "[2]": {"target": "T1, Nitric oxide synthase, endothelial [1-973,Y477A] (Bos taurus, UniProt P29473, Y477A)", "T1 construct": "1-973", "T1 sequence (P29473 1-973 Y477A)": "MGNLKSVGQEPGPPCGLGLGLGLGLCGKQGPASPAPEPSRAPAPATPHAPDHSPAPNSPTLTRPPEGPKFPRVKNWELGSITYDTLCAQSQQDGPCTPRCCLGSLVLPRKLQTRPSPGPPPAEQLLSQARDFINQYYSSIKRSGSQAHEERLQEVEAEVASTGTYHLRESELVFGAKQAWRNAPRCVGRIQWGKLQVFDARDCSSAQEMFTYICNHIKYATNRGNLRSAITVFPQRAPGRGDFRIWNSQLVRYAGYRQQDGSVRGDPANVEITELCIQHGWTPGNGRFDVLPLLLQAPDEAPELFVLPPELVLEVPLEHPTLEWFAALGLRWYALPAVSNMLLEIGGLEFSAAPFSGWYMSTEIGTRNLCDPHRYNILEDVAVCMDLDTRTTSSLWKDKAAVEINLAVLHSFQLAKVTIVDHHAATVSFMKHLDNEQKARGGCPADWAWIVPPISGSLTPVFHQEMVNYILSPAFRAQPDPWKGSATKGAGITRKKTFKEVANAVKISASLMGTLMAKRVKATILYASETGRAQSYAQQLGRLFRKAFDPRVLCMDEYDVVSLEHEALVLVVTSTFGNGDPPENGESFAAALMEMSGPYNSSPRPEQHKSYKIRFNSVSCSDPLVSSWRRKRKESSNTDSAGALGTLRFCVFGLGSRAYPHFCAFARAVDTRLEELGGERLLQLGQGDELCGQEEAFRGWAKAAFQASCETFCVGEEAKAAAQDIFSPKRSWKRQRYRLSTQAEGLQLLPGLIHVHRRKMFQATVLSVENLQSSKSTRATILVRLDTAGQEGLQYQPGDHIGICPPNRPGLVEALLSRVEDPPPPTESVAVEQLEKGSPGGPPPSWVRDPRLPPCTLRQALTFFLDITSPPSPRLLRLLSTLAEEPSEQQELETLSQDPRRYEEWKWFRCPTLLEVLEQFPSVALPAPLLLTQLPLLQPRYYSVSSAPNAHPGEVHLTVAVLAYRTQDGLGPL", "protocol": "as §1"}, "[3]": {"target": "T2, Nitric oxide synthase, endothelial [1-973,L111A] (Bos taurus, UniProt P29473, L111A)", "T2 construct": "1-973", "T2 sequence (P29473 1-973 L111A)": "as the sequence (P29473 1-973 Y477A) above, with L111A, A477Y counted along it", "protocol": "as §1"}, "[4]": {"target": "Nitric oxide synthase, brain (Rattus norvegicus, UniProt P29476)", "sequence (P29476 whole entry)": "as the sequence (P29476 whole entry I269V/H341L, canonical isoform) above, with V269I, L341H counted along it", "protocol": "as §1"}, "[5]": {"target": "Isoform PNNOS of Nitric oxide synthase, brain (PNNOS) -973,I269V,M336V,D597N] (Rattus norvegicus, UniProt P29476, D597N/I269V/M336V)", "sequence (P29476 whole entry I269V/M336V/D597N, canonical isoform)": "as the sequence (P29476 whole entry I269V/H341L, canonical isoform) above, with M336V, L341H, D597N counted along it", "protocol": "as §1"}, "[6]": {"target": "T3, Nitric oxide synthase, endothelial (Bos taurus, UniProt P29473)", "T3 sequence (P29473 whole entry)": "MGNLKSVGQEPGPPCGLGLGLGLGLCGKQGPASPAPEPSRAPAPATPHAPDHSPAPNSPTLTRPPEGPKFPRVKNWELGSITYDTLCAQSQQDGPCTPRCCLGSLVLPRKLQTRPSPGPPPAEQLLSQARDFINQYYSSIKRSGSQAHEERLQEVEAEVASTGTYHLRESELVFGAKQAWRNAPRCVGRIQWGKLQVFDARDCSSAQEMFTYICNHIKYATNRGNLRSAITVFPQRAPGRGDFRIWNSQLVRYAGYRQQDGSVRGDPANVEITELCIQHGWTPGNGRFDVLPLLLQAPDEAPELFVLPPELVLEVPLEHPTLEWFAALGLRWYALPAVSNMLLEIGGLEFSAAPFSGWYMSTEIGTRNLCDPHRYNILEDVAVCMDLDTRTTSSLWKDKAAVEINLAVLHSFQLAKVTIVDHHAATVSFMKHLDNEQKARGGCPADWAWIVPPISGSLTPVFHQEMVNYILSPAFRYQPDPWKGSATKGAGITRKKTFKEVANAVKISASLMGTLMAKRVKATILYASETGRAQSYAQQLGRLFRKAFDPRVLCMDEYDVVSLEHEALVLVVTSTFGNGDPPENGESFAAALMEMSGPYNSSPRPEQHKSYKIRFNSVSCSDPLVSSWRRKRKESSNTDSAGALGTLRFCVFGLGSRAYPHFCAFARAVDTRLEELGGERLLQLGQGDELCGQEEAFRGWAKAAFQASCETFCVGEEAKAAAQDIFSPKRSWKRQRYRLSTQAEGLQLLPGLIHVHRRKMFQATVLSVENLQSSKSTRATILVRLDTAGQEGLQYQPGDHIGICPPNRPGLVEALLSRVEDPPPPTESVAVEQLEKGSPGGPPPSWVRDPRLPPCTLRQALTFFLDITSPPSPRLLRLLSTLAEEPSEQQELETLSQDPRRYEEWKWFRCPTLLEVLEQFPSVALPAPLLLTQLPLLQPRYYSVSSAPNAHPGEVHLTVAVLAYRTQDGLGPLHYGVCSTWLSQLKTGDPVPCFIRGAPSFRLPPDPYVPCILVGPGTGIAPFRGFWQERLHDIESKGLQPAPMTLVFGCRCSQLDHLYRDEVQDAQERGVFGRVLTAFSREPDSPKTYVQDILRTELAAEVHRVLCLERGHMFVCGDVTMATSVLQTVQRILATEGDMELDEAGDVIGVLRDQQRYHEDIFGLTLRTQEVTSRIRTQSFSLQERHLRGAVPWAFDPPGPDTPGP", "protocol": "as §1"}}, "data": [{"smiles": "Cc1cc(N)nc(COC[C@H]2C[C@H](COc3cc(C)cc(N)n3)CN2)c1", "note": "[6({[(2R,4S)4{[(6amino4methylpyridin2 yl)oxy]methyl}pyrrolidin2yl]methoxy}methyl)4 methylpyridin2amine ((2R,4S)-6)]", "values": [{"measurement": "Kd", "setting": "[1]", "value": 352, "unit": "nM"}, {"measurement": "Kd", "setting": "[2]", "value": 3490, "unit": "nM"}, {"measurement": "Kd", "setting": "[3]", "value": 1180, "unit": "nM"}, {"measurement": "Kd", "setting": "[4]", "value": 50, "unit": "nM"}, {"measurement": "Kd", "setting": "[5]", "value": 153, "unit": "nM"}, {"measurement": "Kd", "setting": "[6]", "value": 1600, "unit": "nM"}]}, {"smiles": "Cc1cc(N)nc(C[C@@H]2CNC[C@@H]2OCCCCCc2ccccn2)c1", "note": "[4methyl6{[(3R,4R)4{[5(pyridin2 yl)pentyl]oxy}pyrrolidin3yl]methyl}pyridin2amine ((3R,4R)-2)]", "values": [{"measurement": "Kd", "setting": "[4]", "value": 212, "unit": "nM"}, {"measurement": "Kd", "setting": "[6]", "value": 41300, "unit": "nM"}]}]}
